The source of these data is patent US6184217A (Cephalon, Inc., priority 1997, dated 2001).

Experiment [1] relates to IL-1β production (THP-1 cells). The experiment is described as follows: Inhibition of LPS-induced IL-1β production in THP-1 cells. Format: cell-based. The following applies: Homo sapiens, LPS 2 ug/ml. On the procedure: Stock solutions consisting of 4 mM Compound A, in 100% DMSO, were stored at 4° C. Cell culture medium RPMI 1640 (Media Tech, Herndon, Va.) and fetal bovine serum (Hyclone, Logan, Utah) comprised the test medium. Lipopolysaccharide (LPS) (Sigma, St. Louis, Mo.) from E. coli serotype 0.111:B4, extracted with trichloroacetic acid, was used. Stock solutions of LPS were prepared and stored at 4° C. in phosphate-buffered saline (PBS). ELISA kits for assaying tumor necrosis factor alpha (TNF-α) and IL-1β were purchased from Boehringer-Mannheim, (Indianapolis, Ind.) and were used according to the manufacturer's instructions. THP-1 cells, a human monocyte-derived cell line, was obtained from the American Type Culture Collection (ATCC TIB 202). Cells were grown in RPMI 1640 containing 10% fetal bovine serum (medium) in a humidified atmosphere of 5% CO2 :95% air at 37° C. Experiments were performed in 24 well culture plates (Nunc) with 5×10^5 THP-1 cells in 1 ml of medium. Cells were incubated with LPS at 2 ug/ml to induce TNF-α. After a 3-hr incubation period, the cells and medium were centrifuged at 1,000×g for 5 min, and the resulting supernatant fluid was either assayed immediately for TNF-α or stored at -70° C. and assayed later. Media samples were measured for content of TNF-α and IL-1β by Elisa assays. […]

A further experiment has as its system TNF-α. Briefly: LPS-induced TNF-α in the serum of mice. Format: in vivo, C57BL mice. The following applies: 30 mg/kg ip 2 h before LPS. On the procedure: Sixty female C57BL mice (4-6 weeks old) were divided into six groups, each with 10 animals. Three groups (1,3,5) received vehicle only (PBS containing 0.1% TEA (tetraethyl ammonium hydrochloride)), 200 μl/mouse via intraperitoneal (ip) administration. The other three groups (2,4,6) received Compound A (30 mg/kg in 200 μl, ip) of vehicle (PBS containing 10% of the ethyl ester of 12-hydroxystearic acid; solutol). Two hours later, the animals received by ip administration, 0.1 mg/kg of LPS (groups 1 & 2), 0.5 mg/kg of LPS (groups 3 & 4), and 1.0 mg/kg of LPS (groups 5 % 6). Two hours after LPS administration, all of the animals were sacrificed, and plasma samples were obtained and assayed for their […] and IL-1β content. Assays were carried out as described in Example 8.
The numbers in are the group numbers as described above. N indicates the number of animals from which plasma measurements where made. ND=not done.

pIC50: −log10 of the molar value.

As usually defined, the pIC50 is the negative decadic logarithm of the IC50, by convention in mol/L. In turn, `CCSCc1ccc2c(c1)c1c3c(c4c5cc(CSCC)ccc5n5c4c1n2C1CC(O)(C(=O)OC)C5(C)O1)CNC3=O` (stereo not shown) [Compound A] showed a pIC50 in experiment [1] of 6.58. In addition, the TNF-α in the experiment on TNF-α (LPS dose 0.1 ip, vehicle 6129 ± 676, N = 10) was found to be 2714 ± 449 pg/mL; in the experiment with TNF-α (LPS dose 0.5 ip, vehicle 7141 ± 1113, N = 7) it was 3766 ± 375 pg/mL; in the experiment on TNF-α (LPS dose 1.0 ip, vehicle 3745 ± 610, N = 9) it was 2399 ± 1399 pg/mL.
